Laboratory results taken from patent US4764358A, “Radiolabeled dimethyl branched long chain fatty acid for heart imaging” (The United States of America as represented by the United …, priority 1986, dated 1988).
Like-named read-outs stand apart in the source and are kept apart here.

Key:
[1] = Triple-label experiment, (123I)DMIPP/(131I)BMIPP/(125I)IPP mixture in fasted rats; format: in vivo, fasted female Fischer rats; settings: for initial uptake or "extraction" phase (myocardial): DMIPP, BMIPP and IPP compared
Excerpt: Nevertheless, in the present experiment, the mass of each fatty acid injected was very similar to eliminate any effects of possible synergistic action on myocardial uptake.

[2] = Effect of relative BMIPP/IPP mass ratios on biodistribution properties in rats; format: in vivo; settings: ratios of up to 6:1
Excerpt: Nevertheless, in the present experiment, the mass of each fatty acid injected was very similar to eliminate any effects of possible synergistic action on myocardial uptake. […] Within a few minutes following injection, however, differences in retention are clearly evident in fasted animals.

in vivo = assay: in vivo; set-up: species or system female Fischer rats; settings: rat, iv; for tissue uptake at 5 min / tissue uptake at 0.5 h / tissue uptake at 1 h / tissue uptake at 2 h / tissue uptake at 4 h / tissue uptake at 8 h: distribution of radioactivity
Experimental: (§1) DISTRIBUTION OF RADIOACTIVITY
(% INJECTED DOSE/GRAM OF TISSUE) IN FASTED
(§2) RATS AT VARIOUS TIMES AFTER INTRAVENOUS ADMINISTRATION OF
(§3) 15-(p-[^125 I]IODOPHENYL)-3,3-DIMETHYLPENTADECANOIC ACID (DMIPP)
Mean and range values for five (5, 30 and 60 min) or four (2, 4 and 8 h)
female Fischer rats. Other tissues that were analyzed include spleen,
as §1
(% INJECTED DOSE/ORGAN OF TISSUE) IN FASTED
as §2, §3
Time after injection; Percent injected dose/organ (range)

[3] = Myocardial retention after intravenous administration to unfasted rats; format: in vivo; settings: first couple of hours after intravenous administration
Excerpt: Dimethyl branching was placed at the beta carbon to compare it with the monomethyl branched analogue and because of ease of synthesis. It is believed that dimethyl branching at the alpha carbon would give similar results.

[4] = rat, in vivo
Experimental: (§4) Iodine-125 DMIPP was administered in 6% BSA solution to groups of fasted and fed rats. The animals were killed at time periods varying from 5 min to 8 h and selected tissues and aliquots of blood removed and analyzed in a gamma spectrometer.

[5] = Myocardial uptake/retention and heart:blood ratio, DMIPP compared with monomethyl BMIPP and IPP; settings: after 60 min
Experimental: as §4

O=C(O)CCCCCCCCCCCCCCc1ccc([125I])cc1 [IPP, reference compound]
initial uptake or "extraction" phase (myocardial) [1]: very similar for these three agents
effect of relative BMIPP/IPP mass ratios on biodistribution properties [2]: insignificant effect

CC(C)(CCCCCCCCCCCCc1ccc(I)cc1)CC(=O)O [DMIPP, 15-(p-iodophenyl)-3,3-dimethylpentadecanoic acid]
Blood, distribution of radioactivity (in vivo; 5 min): 8.47 % injected dose/organ
Heart, distribution of radioactivity (in vivo; 5 min): 1.95 % injected dose/organ
Kidneys, distribution of radioactivity (in vivo; 5 min): 1.45 % injected dose/organ
Liver, distribution of radioactivity (in vivo; 5 min): 30.9 % injected dose/organ
Lungs, distribution of radioactivity (in vivo; 5 min): 1.63 % injected dose/organ
Mean Heart:Blood (in vivo; 5 min): 3:1
Thyroid, distribution of radioactivity (in vivo; 5 min): 0.14 % injected dose/organ
Blood, distribution of radioactivity (in vivo; 30 min): 2.30 % injected dose/organ
Heart, distribution of radioactivity (in vivo; 30 min): 2.09 % injected dose/organ
Kidneys, distribution of radioactivity (in vivo; 30 min): 1.49 % injected dose/organ
Liver, distribution of radioactivity (in vivo; 30 min): 28.8 % injected dose/organ
Lungs, distribution of radioactivity (in vivo; 30 min): 0.99 % injected dose/organ
Mean Heart:Blood (in vivo; 30 min): 12:1
Thyroid, distribution of radioactivity (in vivo; 30 min): 0.15 % injected dose/organ
Blood, distribution of radioactivity (in vivo; 60 min): 2.41 % injected dose/organ
Heart, distribution of radioactivity (in vivo; 60 min): 2.24 % injected dose/organ
Kidneys, distribution of radioactivity (in vivo; 60 min): 1.51 % injected dose/organ
Liver, distribution of radioactivity (in vivo; 60 min): 32.4 % injected dose/organ
Lungs, distribution of radioactivity (in vivo; 60 min): 0.98 % injected dose/organ
Mean Heart:Blood (in vivo; 60 min): 12.5:1
Thyroid, distribution of radioactivity (in vivo; 60 min): 0.11 % injected dose/organ
Blood, distribution of radioactivity (in vivo; 120 min): 2.24 % injected dose/organ
Heart, distribution of radioactivity (in vivo; 120 min): 1.99 % injected dose/organ
Kidneys, distribution of radioactivity (in vivo; 120 min): 1.62 % injected dose/organ
Liver, distribution of radioactivity (in vivo; 120 min): 22.8 % injected dose/organ
Lungs, distribution of radioactivity (in vivo; 120 min): 0.87 % injected dose/organ
Mean Heart:Blood (in vivo; 120 min): 12.6:1
Thyroid, distribution of radioactivity (in vivo; 120 min): 0.17 % injected dose/organ
Blood, distribution of radioactivity (in vivo; 240 min): 2.04 % injected dose/organ
Heart, distribution of radioactivity (in vivo; 240 min): 1.56 % injected dose/organ
Kidneys, distribution of radioactivity (in vivo; 240 min): 1.58 % injected dose/organ
Liver, distribution of radioactivity (in vivo; 240 min): 16.7 % injected dose/organ
Lungs, distribution of radioactivity (in vivo; 240 min): 1.77 % injected dose/organ
Mean Heart:Blood (in vivo; 240 min): 11.2:1
Thyroid, distribution of radioactivity (in vivo; 240 min): 0.22 % injected dose/organ
Blood, distribution of radioactivity (in vivo; 480 min): 1.59 % injected dose/organ
Heart, distribution of radioactivity (in vivo; 480 min): 1.05 % injected dose/organ
Kidneys, distribution of radioactivity (in vivo; 480 min): 1.34 % injected dose/organ
Liver, distribution of radioactivity (in vivo; 480 min): 11.4 % injected dose/organ
Lungs, distribution of radioactivity (in vivo; 480 min): 0.66 % injected dose/organ
Mean Heart:Blood (in vivo; 480 min): 9.3:1
Thyroid, distribution of radioactivity (in vivo; 480 min): 0.28 % injected dose/organ
tissue uptake at 5 min (in vivo; Blood): 1.48 %ID/g
tissue uptake at 0.5 h (in vivo; Blood): 0.42 %ID/g
tissue uptake at 1 h (in vivo; Blood): 0.36 %ID/g
tissue uptake at 2 h (in vivo; Blood): 0.35 %ID/g
tissue uptake at 4 h (in vivo; Blood): 0.31 %ID/g
tissue uptake at 8 h (in vivo; Blood): 0.24 %ID/g
tissue uptake at 5 min (in vivo; Heart): 4.67 %ID/g
tissue uptake at 0.5 h (in vivo; Heart): 5.06 %ID/g
tissue uptake at 1 h (in vivo; Heart): 4.49 %ID/g
tissue uptake at 2 h (in vivo; Heart): 4.37 %ID/g
tissue uptake at 4 h (in vivo; Heart): 3.53 %ID/g
tissue uptake at 8 h (in vivo; Heart): 2.24 %ID/g
tissue uptake at 5 min (in vivo; Kidneys): 1.39 %ID/g
tissue uptake at 0.5 h (in vivo; Kidneys): 1.47 %ID/g
tissue uptake at 1 h (in vivo; Kidneys): 1.46 %ID/g
tissue uptake at 2 h (in vivo; Kidneys): 1.41 %ID/g
tissue uptake at 4 h (in vivo; Kidneys): 1.39 %ID/g
tissue uptake at 8 h (in vivo; Kidneys): 1.19 %ID/g
tissue uptake at 5 min (in vivo; Liver): 7.73 %ID/g
tissue uptake at 0.5 h (in vivo; Liver): 7.3 %ID/g
tissue uptake at 1 h (in vivo; Liver): 6.02 %ID/g
tissue uptake at 2 h (in vivo; Liver): 5.32 %ID/g
tissue uptake at 4 h (in vivo; Liver): 3.56 %ID/g
tissue uptake at 8 h (in vivo; Liver): 2.52 %ID/g
tissue uptake at 5 min (in vivo; Lungs): 2.15 %ID/g
tissue uptake at 0.5 h (in vivo; Lungs): 1.42 %ID/g
tissue uptake at 1 h (in vivo; Lungs): 1.17 %ID/g
tissue uptake at 2 h (in vivo; Lungs): 1.12 %ID/g
tissue uptake at 4 h (in vivo; Lungs): 0.97 %ID/g
tissue uptake at 8 h (in vivo; Lungs): 0.79 %ID/g
tissue uptake at 5 min (in vivo; Thyroid): 16.7 %ID/g
tissue uptake at 0.5 h (in vivo; Thyroid): 18.5 %ID/g
tissue uptake at 1 h (in vivo; Thyroid): 15.8 %ID/g
tissue uptake at 2 h (in vivo; Thyroid): 17.9 %ID/g
tissue uptake at 4 h (in vivo; Thyroid): 22.9 %ID/g
tissue uptake at 8 h (in vivo; Thyroid): 27.8 %ID/g
initial uptake or "extraction" phase (myocardial) [1]: very similar for these three agents
retention and heart:blood ratios (triple label) ([1]; in comparison to BMIPP and IPP): greater retention and higher heart:blood ratios
myocardial retention [3]: essentially irreversible myocardial retention
heart-to-blood ratio [4]: 10/1
heart:blood ratios, in words [4]: much higher heart:blood ratios
loss (washout) from heart [4]: approximately 24%
myocardial retention, effect of dimethyl branching into the IPP molecule [4]: substantial increase in the myocardial retention
myocardial uptake [4]: high myocardial uptake
radioiodine in the blood, effect of dimethyl branching into the IPP molecule [4]: dramatic decrease of radioiodine in the blood
retention in the heart [4]: prolonged retention
t1/2 (heart retention) [4]: 12 h
time it remained measurable (in the heart) [4]: up to 12 hours
mean heart:blood ratios ([4]; 15 min): greater than 10:1

CC(CCCCCCCCCCCCc1ccc([123I])cc1)CC(=O)O (stereo not drawn) [BMIPP]
initial uptake or "extraction" phase (myocardial) [1]: very similar for these three agents
effect of relative BMIPP/IPP mass ratios on biodistribution properties [2]: insignificant effect
loss (washout) from heart [5]: approximately 40%
